From US6737383B1, “Herbicidal oxadiazolidines” (priority 1999, dated 2004)

Columns and labels:
wild oat = assay: Test B pre/postemergence wild oat; format: in vivo, Avena fatua
Outline: (§1)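 Herbicidal effect was estimated by eye on a ten-point control scale after plants spent twelve to sixteen days in a greenhouse following soil or foliar treatment. Foliar sprays targeted plants at one to four leaves; all doses were formulated in a non-phytotoxic solvent with surfactant.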

sugar beet = assay: Test B pre/postemergence sugar beet; format: in vivo, Beta vulgaris
Outline: as §1

cocklebur = assay: Test B pre/postemergence cocklebur; format: in vivo, Xanthium strumarium
Outline: as §1

rape = assay: Test B pre/postemergence rape; format: in vivo, Brassica napus
Outline: as §1

duck salad = assay: Test B flood test duck salad; format: in vivo, Heteranthera limosa
Outline: (§2)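 Each value is a visual injury score relative to controls, with 10 meaning complete control and 0 no effect. Evaluation took place twelve to sixteen days after the 2-leaf-stage plants were treated and kept in the greenhouse.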

bedstraw = assay: Test B pre/postemergence bedstraw; format: in vivo, Galium aparine
Outline: as §1

corn = assay: Test B pre/postemergence corn; format: in vivo, Zea mays
Outline: as §1

giant foxtail = assay: Test B pre/postemergence giant foxtail; format: in vivo, Setaria faberii
Outline: as §1

rice = assay: Test B flood test rice; format: in vivo, Oryza sativa
Outline: as §2

surinam grass = assay: Test B pre/postemergence surinam grass; format: in vivo, Brachiaria decumbens
Outline: as §1

smallflower flatsedge = assay: Test B flood test smallflower flatsedge; format: in vivo, Cyperus difformis
Outline: as §2

soybean = assay: Test B pre/postemergence soybean; format: in vivo, Glycine max
Outline: as §1

wheat = assay: Test B pre/postemergence wheat; format: in vivo, Triticum aestivum
Outline: as §1

purple nutsedge = assay: Test B pre/postemergence purple nutsedge; format: in vivo, Cyperus rotundus
Outline: as §1

pigweed = assay: Test B pre/postemergence pigweed; format: in vivo, Amaranthus retroflexus
Outline: as §1

velvetleaf = assay: Test B pre/postemergence velvetleaf; format: in vivo, Abutilon theophrasti
Outline: as §1

[1] = Preemergence, Rate 62 g/ha, scale of 0 to 10 where 0 is no effect and 10 is complete control
[2] = Preemergence, Rate 250 g/ha, scale 0 to 10, 0 is no effect, 10 is complete control
[3] = Preemergence, Rate 500 g/ha, scale 0 to 10 (0 no effect, 10 complete control)
[4] = Rate 125 g/ha, Postemergence, scale 0 to 10
[5] = Rate 500 g/ha, Postemergence, scale 0 to 10
[6] = Preemergence, Rate 125 g/ha, 0 is no effect, 10 is complete control
[7] = Rate 62 g/ha, Postemergence, scale of 0 to 10 where 0 is no effect and 10 is complete control
[8] = Rate 62 g/ha, headed Pre-emergence (flood test species), scale 0 to 10 (0 no effect, 10 complete control)
[9] = Rate 125 g/ha, Pre-emergence, flood test species, scale 0 to 10 where 0 is no effect and 10 is complete control
[10] = Rate 250 g/ha, Pre-emergence, flood-test species, scale 0 to 10, 0 is no effect, 10 is complete control
[11] = Rate 500 g/ha, headed Pre-emergence (flood test species), scale 0 to 10 (0 no effect, 10 complete control)

COc1nc(OC)nc(N(C(=O)n2oc(=O)n(C(C)C)c2=O)C(C)C)n1 [Compound 182]
0: Wild oats plant response rating (wild oat; [1]) | Wild oats plant response rating (wild oat; [2]) | Wild oats plant response rating (wild oat; [3]) | Wild oats plant response rating (wild oat; [4]) | Plant response rating (0 to 10; 0 is no effect, 10 is complete control), Wild oats (wild oat; Rate 250 g/ha, Postemergence) | Wild oats plant response rating (wild oat; [5]) | Sugarbeets plant response rating (sugar beet; [1]) | Sugarbeets plant response rating (0 to 10 scale) (sugar beet; [6]) | Sugarbeets plant response rating (sugar beet; [2]) | Sugarbeets plant response rating (sugar beet; [3]) | Sugarbeets plant response rating (sugar beet; [7]) | Sugarbeets plant response rating (sugar beet; [4]) | Plant response rating (0 to 10; 0 is no effect, 10 is complete control), Sugarbeets (sugar beet; Rate 250 g/ha, Postemergence) | Sugarbeets plant response rating (sugar beet; [5]) | Cocklebur plant response rating (cocklebur; [1]) | Cocklebur plant response rating (0 to 10 scale) (cocklebur; [6]) | Cocklebur plant response rating (cocklebur; [2]) | Cocklebur plant response rating (cocklebur; [3]) | Cocklebur plant response rating (cocklebur; [7]) | Cocklebur plant response rating (cocklebur; [4]) | Plant response rating (0 to 10; 0 is no effect, 10 is complete control), Cocklebur (cocklebur; Rate 250 g/ha, Postemergence) | Cocklebur plant response rating (cocklebur; [5]) | Rape plant response rating (rape; [1]) | Rape plant response rating (0 to 10 scale) (rape; [6]) | Rape plant response rating (rape; [2]) | Rape plant response rating (rape; [3]) | Rape plant response rating (rape; [7]) | Rape plant response rating (rape; [4]) | Plant response rating (0 to 10; 0 is no effect, 10 is complete control), Rape (rape; Rate 250 g/ha, Postemergence) | Rape plant response rating (rape; [5]) | Ducksalad plant response rating (duck salad; [8]) | Ducksalad plant response rating (duck salad; [9]) | Ducksalad plant response rating (duck salad; [10]) | Plant response rating, Ducksalad (duck salad; [11]) | Bedstraw plant response rating (bedstraw; [1]) | Bedstraw plant response rating (0 to 10 scale) (bedstraw; [6]) | Bedstraw plant response rating (bedstraw; [2]) | Bedstraw plant response rating (bedstraw; [3]) | Bedstraw plant response rating (bedstraw; [7]) | Bedstraw plant response rating (bedstraw; [4]) | Plant response rating (0 to 10; 0 is no effect, 10 is complete control), Bedstraw (bedstraw; Rate 250 g/ha, Postemergence) | Bedstraw plant response rating (bedstraw; [5]) | Corn plant response rating (corn; [1]) | Corn plant response rating (0 to 10 scale) (corn; [6]) | Corn plant response rating (corn; [2]) | Corn plant response rating (corn; [3]) | Corn plant response rating (corn; [7]) | Corn plant response rating (corn; [4]) | Plant response rating (0 to 10; 0 is no effect, 10 is complete control), Corn (corn; Rate 250 g/ha, Postemergence) | Corn plant response rating (corn; [5]) | Giant foxtail plant response rating (giant foxtail; [1]) | Giant foxtail plant response rating (0 to 10 scale) (giant foxtail; [6]) | Giant foxtail plant response rating (giant foxtail; [2]) | Giant foxtail plant response rating (giant foxtail; [3]) | Giant foxtail plant response rating (giant foxtail; [7]) | Giant foxtail plant response rating (giant foxtail; [4]) | Plant response rating (0 to 10; 0 is no effect, 10 is complete control), Giant foxtail (giant foxtail; Rate 250 g/ha, Postemergence) | Giant foxtail plant response rating (giant foxtail; [5]) | Rice plant response rating (rice; [8]) | Rice plant response rating (rice; [9]) | Rice plant response rating (rice; [10]) | Plant response rating, Rice (rice; [11]) | B. signalgrass plant response rating (surinam grass; [1]) | B. signalgrass plant response rating (0 to 10 scale) (surinam grass; [6]) | B. signalgrass plant response rating (surinam grass; [2]) | B. signalgrass plant response rating (surinam grass; [3]) | B. signalgrass plant response rating (surinam grass; [7]) | B. signalgrass plant response rating (surinam grass; Rate 125 g/ha, Postemergence, scale 0 (no effect) to 10 (complete control)) | Plant response rating, B. signalgrass (surinam grass; Rate 250 g/ha, Postemergence, scale 0 to 10, 0 is no effect, 10 is complete control) | B. signalgrass plant response rating (surinam grass; Rate 500 g/ha, Postemergence, scale 0 to 10, 0 no effect, 10 complete control) | S. Flatsedge plant response rating (smallflower flatsedge; [8]) | S. Flatsedge plant response rating (smallflower flatsedge; [9]) | S. Flatsedge plant response rating (smallflower flatsedge; [10]) | S. Flatsedge plant response rating (smallflower flatsedge; Rate 500 g/ha, Pre-emergence, flood test species, scale 0 to 10 (0 no effect, 10 complete control)) | Soybean plant response rating (soybean; [1]) | Soybean plant response rating (0 to 10 scale) (soybean; [6]) | Soybean plant response rating (soybean; [2]) | Soybean plant response rating (soybean; [3]) | Soybean plant response rating (soybean; [7]) | Soybean plant response rating (soybean; [4]) | Plant response rating (0 to 10; 0 is no effect, 10 is complete control), Soybean (soybean; Rate 250 g/ha, Postemergence) | Soybean plant response rating (soybean; [5]) | Wheat plant response rating (wheat; [1]) | Wheat plant response rating (wheat; [2]) | Wheat plant response rating (wheat; [3]) | Wheat plant response rating (wheat; [4]) | Plant response rating (0 to 10; 0 is no effect, 10 is complete control), Wheat (wheat; Rate 250 g/ha, Postemergence) | Wheat plant response rating (wheat; [5]) | Nutsedge plant response rating (purple nutsedge; [1]) | Nutsedge plant response rating (0 to 10 scale) (purple nutsedge; [6]) | Nutsedge plant response rating (purple nutsedge; [2]) | Nutsedge plant response rating (purple nutsedge; [3]) | Nutsedge plant response rating (purple nutsedge; [7]) | Nutsedge plant response rating (purple nutsedge; [4]) | Plant response rating (0 to 10; 0 is no effect, 10 is complete control), Nutsedge (purple nutsedge; Rate 250 g/ha, Postemergence) | Nutsedge plant response rating (purple nutsedge; [5]) | Redroot pigweed plant response rating (pigweed; [1]) | Redroot pigweed plant response rating (0 to 10 scale) (pigweed; [6]) | Redroot pigweed plant response rating (pigweed; [2]) | Redroot pigweed plant response rating (pigweed; [3]) | Redroot pigweed plant response rating (pigweed; [7]) | Redroot pigweed plant response rating (pigweed; [4]) | Plant response rating (0 to 10; 0 is no effect, 10 is complete control), Redroot pigweed (pigweed; Rate 250 g/ha, Postemergence) | Redroot pigweed plant response rating (pigweed; [5]) | Velvetleaf plant response rating (velvetleaf; [1]) | Velvetleaf plant response rating (velvetleaf; [2]) | Velvetleaf plant response rating (velvetleaf; [3]) | Velvetleaf plant response rating (velvetleaf; [4]) | Plant response rating (0 to 10; 0 is no effect, 10 is complete control), Velvetleaf (velvetleaf; Rate 250 g/ha, Postemergence) | Velvetleaf plant response rating (velvetleaf; [5])
